Assay results: patent US20220317132A1, “USE OF ENDOTHELIN RECEPTOR INHIBITOR FOR INHIBITING EXOSOME SECRETION OR INHIBITING PD-L1 EXPRESSION” (KYUNGPOOK NATIONAL UNIVERSITY INDUSTRY-ACADEMIC COOPERATION …, priority 2019, published 2022)

System: MDA-MB231 cells
Experiment: Cytotoxic effect (MTT analysis)
Conditions: 24 hours, sulfisoxazole 100 μM, ambrisentan 1, 10, 100 μM, macitentan 100, 1000 nM, bosentan 10, 50 μM, FIG. 1
Protocol: MCF10A cells were cultured in Mammary epithelial cell growth medium (MEGM, Lonza) added with 5% fetal bovine serum, 1% antibiotics, 52 μg/ml bovine pituitary extract, 0.5 μg/ml hydrocortisone, 10 ng/ml EGF, and 5 μg/ml insulin. MDA-MB231 and MCF7 cells were cultured in Dulbecco's modified Eagle's medium (DMEM, Hyclone) added with 10% fetal bovine serum and 1% antibiotics.
MDA-MB231 cells were seeded at 1×10^5/well in a 24-well plate, and then cultured for 24 hours to allow time for cell stabilization. After culturing for 24 hours, the cells were treated with 100 μM of sulfisoxazole, 1, 10, and 100 μM of ambrisentan, 100 and 1000 nM of macitentan, and 10 and 50 μM of bosentan and cultured for 24 hours. Then, after treatment with MTT tetrazolium reagent, the cells were cultured for 4 hours. After 4 hours, reduced MTT formazan (3-(4,5-dimethylthiazol-2-yl)-2,5 diphenyl-tetrazolium bromide) was measured at 595 nm absorbance to confirm cell proliferation effects.

SMILES	cytotoxicity (MTT, absorbance 595 nm)
COc1ccccc1Oc1c(NS(=O)(=O)c2ccc(C(C)(C)C)cc2)nc(-c2ncccn2)nc1OCCO [bosentan]	no cytotoxicity
Cc1noc(NS(=O)(=O)c2ccc(N)cc2)c1C [sulfisoxazole]	no cytotoxicity
